Source: patent US20180207294A1, “NON-ALCOHOLIC FATTY LIVER REGULATING FACTOR 14-3-3 PROTEIN” (Korea University Research and Business Foundation, priority 2015, published 2018)

Columns and labels:
[1] = system: HepG2 cells; assay: mRNA expression (PCR) after oleic acid treatment, HepG2 cells; assay type: cell-based, human; details: oleic acid 72 hours
From the text: (§1) It is known that, in the liver of obese mice, the expression and activity of PPARγ2 are increased, and the expression of a target gene thereof is increased. To form such an obese environment in an in vitro experiment, mRNA expression amounts of PPARγ2, and 14-3-3β and 14-3-3γ were checked through treatment with oleic acid (OA), which is a type of fatty acid.
(§2) HepG2 cells and primary mouse hepatocytes were separately seeded in a 6-well plate at a density of 4x10^5 cells per each well, and then treated with 200 μM of oleic acid (OA) for 72 hours. For mRNA extraction, the corresponding cells were lysed with 1 ml/well of TRIzol (Invitrogen), 200 μl of chloroform was added thereto and mixed well, the resultant cells were maintained at room temperature for 5 minutes and then centrifuged at 12,000×g and 4° C. for 15 minutes, the obtained supernatant was mixed with 500 μl of isopropanol and then put on ice for 10 minutes, the resulting supernatant was centrifuged at 12,000×g and 4° C. for 15 minutes to remove a supernatant, and then pellets were dissolved with tertiary distilled water treated with diethyl pyrocarbonate (DEPC). 2 μg of mRNA was synthesized into cDNA using a Superscript First Strand cDNA Synthesis Kit (Bioneer, Daejeon, South Korea) and the synthesized cDNA as a template was amplified through polymerase chain reaction (PCR) using primers specific to PPARγ2, 14-3-3β, 14-3-3γ, SREBP-1c, SCD-1, ACC, FABP, FAT/CD36, and (β-actin of humans, and was amplified through real-time PCR using primers specific to PPARγ2, 14-3-3β, 14-3-3γ, SREBP-1c, FAT/CD36, and GAPDH of mice. β-actin and GAPDH were used as controls to see whether mRNAs of the respective cells were compared in the same amount.

[2] = system: primary mouse hepatocytes; assay: mRNA expression (real-time PCR) after oleic acid treatment, primary mouse hepatocytes; assay type: cell-based; details: oleic acid 72 hours
From the text: as §1, §2

[3] = target: T1, PPARγ2 and 14-3-3β (Homo sapiens, UniProt P37231); assay: GST-pull down assay, PPARγ2 / 14-3-3β binding with oleic acid treatment (HEK-293T); details: 200 μM oleic acid 72 hours; FIG. 8A
T1 construct: expressed in transfected cells; host or cells: HEK-293T
T1 sequence (P37231 1-505): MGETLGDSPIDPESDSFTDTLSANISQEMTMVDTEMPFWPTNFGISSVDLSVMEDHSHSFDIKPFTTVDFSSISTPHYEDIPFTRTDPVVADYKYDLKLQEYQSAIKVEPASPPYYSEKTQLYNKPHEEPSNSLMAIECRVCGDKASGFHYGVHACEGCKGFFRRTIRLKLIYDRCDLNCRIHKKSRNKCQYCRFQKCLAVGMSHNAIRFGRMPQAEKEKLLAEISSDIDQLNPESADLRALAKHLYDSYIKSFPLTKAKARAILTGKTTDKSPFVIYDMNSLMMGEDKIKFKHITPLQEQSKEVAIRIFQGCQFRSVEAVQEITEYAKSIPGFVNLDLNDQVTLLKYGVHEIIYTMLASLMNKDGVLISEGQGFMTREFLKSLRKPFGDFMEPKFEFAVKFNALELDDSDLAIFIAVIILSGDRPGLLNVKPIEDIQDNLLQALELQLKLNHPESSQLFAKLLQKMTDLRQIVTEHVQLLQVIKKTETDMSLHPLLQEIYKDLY
T1 sequence (P31946 1-246 partner): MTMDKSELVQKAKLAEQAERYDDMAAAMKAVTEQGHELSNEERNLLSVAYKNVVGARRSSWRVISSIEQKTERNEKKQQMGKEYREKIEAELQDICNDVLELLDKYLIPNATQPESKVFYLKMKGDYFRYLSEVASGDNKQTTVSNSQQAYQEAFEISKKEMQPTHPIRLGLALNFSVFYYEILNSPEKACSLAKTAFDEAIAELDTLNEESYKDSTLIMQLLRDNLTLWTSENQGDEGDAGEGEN
Description: (§3) HEK-293T cells were seeded in a 100 mm plate at a density of 2×10^6 cells per each well, and then transfected with mGST-PPARγ2DNA (4 μg) and HA-14-3-3β DNA (4 μg) or HA-14-3-3γ DNA (4 μg) using an E-fection plus reagent (Lugen). A ratio of DNA to the E-fection plus reagent was 1:2, and this method was performed according to a manufacturer's manual. After transfection, the cells were treated with 200 μM of oleic acid (OA) for 72 hours, washed with ice-cold PBS, and lysed with 500 μl/well of a lysis buffer (150 mM NaCl, 1 mM EDTA, 1% Nonidet P-40, 5% glycerol, 25 mM tris-HCl, pH 7.5, protease inhibitor added), the lysed cells were centrifuged at 10,000×g and 4° C. for 10 minutes to extract proteins, 1,000 μg of the proteins was reacted with 20 μl of glutathione Sepharose 4B beads (GE Healthcare, Buckinghamshire, UK) for 6 hours, washing of the beads with 1 ml of ice-cold PBS was repeated 5 times, the resulting beads were boiled at 100° C. for 10 minutes, and the proteins were separated on a 10% SDS-PAGE gel and identified using each of the antibodies (GST, HA: Santa Cruz) by western blotting, and all antibodies were used in a ratio of 1:3000.

[4] = target: T2, PPARγ2 and 14-3-3γ (Homo sapiens, UniProt P37231); assay: GST-pull down assay, PPARγ2 / 14-3-3γ binding with oleic acid treatment (HEK-293T); details: 200 μM oleic acid 72 hours; FIG. 8B
T2 construct: expressed in transfected cells; host or cells: HEK-293T
T2 sequence (P37231 1-505): T1 sequence (P37231 1-505)
Description: as §3

[5] = system: HepG2 cells; assay: Oil Red-O lipid accumulation, HepG2 cells; assay type: cell-based; details: concentration-dependent treatment of oleic acid, FIG. 9A
Description: (§4) HepG2 cells and primary mouse hepatocytes were separately seeded in a 6-well plate at a density of 4×10^5 cells per each well, and then transfected with GFP-14-3-3β DNA (1 μg) or GFP-14-3-3γ DNA (1 μg) and si-14-3-3β (10 μM, Santa Cruz) or si-14-3-3γ (10 μM, Santa Cruz) using an E-fection plus reagent (Lugen). A ratio of DNA to the E-fection plus reagent was 1:2, and this method was performed according to a manufacturer's manual. […] The stained cells were bleached with 1 ml of isopropanol and analyzed at a wavelength of 550 nm using a DU530 spectrophotometer (Beckman Instruments, Palo Alto, Calif.).

[6] = system: primary mouse hepatocytes; assay: Oil Red-O lipid accumulation, primary mouse hepatocytes; assay type: cell-based; details: concentration-dependent treatment of oleic acid, FIG. 9A
Description: as §4

[7] = system: primary mouse hepatocytes; assay: Triglyceride colorimetric assay, primary mouse hepatocytes; assay type: cell-based; details: primary mouse hepatocytes treated with oleic acid (200 μM, 72 hours); FIG. 10A
Description: A triglyceride (neutral fat) is a type of fatty acid and is used as an index of a fat content. A biochemical lipid test was carried out by measuring an amount of triglycerides. HepG2 cells and primary mouse hepatocytes were separately seeded in a 6-well plate at a density of 4×10^5 cells per each well, and then transfected with GFP-14-3-3β DNA (1 μg) or GFP-14-3-3γ DNA (1 μg) and si-14-3-3β (10 μM, Santa Cruz) or si-14-3-3γ (10 μM, Santa Cruz) using an E-fection plus reagent (Lugen). A ratio of DNA to the E-fection plus reagent was 1:2, and this method was performed according to a manufacturer's manual. After transfection, the cells were treated with 200 μM of oleic acid (OA) for 72 hours, and the amount of triglycerides was measured using a triglyceride colorimetric assay kit (Cayman Chemical). The corresponding cells were washed with ice-cold PBS and then scraped using a standard diluent assay reagent, the scrapping process was repeated using a sonicator 20 times to lyse the cells, and the lysed cells were reacted with an enzyme buffer solution for 15 minutes, followed by measurement using an ELISA reader (Bio-Rad Laboratories, Inc) at a wavelength of 550 nm.

binding between PPARγ2 and 14-3-3β [3]: increased
binding between PPARγ2 and 14-3-3γ [4]: reduced
Compound: CCCCCCCC/C=C\CCCCCCCC(=O)O [oleic acid]
mRNA expression amount of 14-3-3β ([1]; FIG. 6A): no changes
mRNA expression amount of 14-3-3γ ([1]; FIG. 6A): no changes
mRNA expression of PPARγ2 ([1]; FIG. 6A): increased in an oleic acid concentration-dependent manner
mRNA expression of lipid metabolism-associated genes (PPARγ2 target genes) ([1]; FIG. 6C): also increased in an oleic acid concentration-dependent manner
mRNA expression amount of 14-3-3β ([2]; FIG. 6B): no changes
mRNA expression amount of 14-3-3γ ([2]; FIG. 6B): no changes
mRNA expression of PPARγ2 ([2]; FIG. 6B): increased in an oleic acid concentration-dependent manner
mRNA expression of lipid metabolism-associated genes (PPARγ2 target genes) ([2]; FIG. 6D): also increased in an oleic acid concentration-dependent manner
lipid accumulation (Oil Red-O) [5]: lipid accumulation was increased
lipid accumulation (Oil Red-O) [6]: lipid accumulation was increased
triglyceride accumulation [7]: triglyceride accumulation was increased
